Measured values published in article PMC11452689 (Communications Biology, 2024).

Experiment: LUV membrane polarisation, oxonol VI, Na+/K+ gradient
Assay type: biochemical
Conditions: 100 mM NaCl inside, 100 mM KCl outside, pH 7.2, 0.5 MIC

Substance: valinomycin
- diffusion potential in the cation gradient LUV model, in words: inside positive polarisation
